Results as given in paper PMC2000878, “Module structure of interphotoreceptor retinoid-binding protein (IRBP) may provide bases for its complex role in the visual cycle – structure/function study of Xenopus IRBP” (BMC Biochemistry, 2007).
Like-named read-outs stand apart in the source and are kept apart here.

Assays:
Xenopus IRBP Module 3 = target: T1, Xenopus IRBP Module 3 (Xenopus laevis, UniProt Q7SZI7); experiment: Fluorometric titration (enhancement, quenching); format: binding
T1 construct: cDNAs corresponding to the full-length IRBP, module 1, and module 2 were expressed in pThioHis; modules 3 and 4 were expressed in pTrxFus; made in house; host or cells: E. coli GI724 / GI698 (pTrxFus)
T1 sequence (Q7SZI7 616-922): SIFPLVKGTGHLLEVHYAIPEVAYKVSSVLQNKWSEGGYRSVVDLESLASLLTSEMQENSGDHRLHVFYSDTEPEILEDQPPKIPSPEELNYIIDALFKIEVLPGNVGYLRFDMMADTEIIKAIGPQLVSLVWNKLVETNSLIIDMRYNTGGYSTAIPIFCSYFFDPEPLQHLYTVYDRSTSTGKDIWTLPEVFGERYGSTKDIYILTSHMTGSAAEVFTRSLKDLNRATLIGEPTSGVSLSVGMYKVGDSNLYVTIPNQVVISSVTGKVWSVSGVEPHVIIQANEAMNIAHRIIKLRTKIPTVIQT
Text: (§1) Enhancement of retinol fluorescence and quenching of the intrinsic protein fluorescence were used to monitor binding of all-trans retinol to the recombinant IRBPs. We previously derived an equation that is generally useful for describing such quantum yield changes that are consequent upon ligand binding. This equation has been previously applied to the analysis of binding by monitoring the enhancement of retinol fluorescence. In this case, where excitation is at 330 nm and emission is monitored at 480, the fluorescence enhancement (Fenh) depends on the total retinol concentration (Rt), the dissociation constant (Kd ^all-trans), the number of retinol-binding sites per protein molecule (N) and the total protein concentration (Pt).
(§2) Assuming that there is a single type of noninteracting site on the protein, (Fenh) is expected to be linearly related to the concentration of bound retinol molecules. Fenh is given by the relation
(§3) Fenh=C1+C2[Rtall−trans−(Rtall−trans+NPt+Kdall−trans)^2−4NPtRtall−trans] MathType@MTEF@5@5@+=feaafiart1ev1aaatCvAUfKttLearuWrP9MDH5MBPbIqV92AaeXatLxBI9gBaebbnrfifHhDYfgasaacH8akY=wiFfYdH8Gipec8Eeeu0xXdbba9frFj0=OqFfea0dXdd9vqai=hGuQ8kuc9pgc9s8qqaq=dirpe0xb9q8qiLsFr0=vr0=vr0dc8meaabaqaciaacaGaaeqabaqabeGadaaakeaacqWGgbGrdaWgaaWcbaGaemyzauMaemOBa4MaemiAaGgabeaakiabg2da9iabdoeadnaaBaaaleaacqaIXaqmaeqaaOGaey4kaSIaem4qam0aaSbaaSqaaiabikdaYaqabaGcdaWadaqaaiabdkfasnaaDaaaleaacqWG0baDaeaacqWGHbqycqWGSbaBcqWGSbaBcqGHsislcqWG0baDcqWGYbGCcqWGHbqycqWGUbGBcqWGZbWCaaGccqGHsisldaGcaaqaamaabmaabaGaemOuai1aa0baaSqaaiabdsha0bqaaiabdggaHjabdYgaSjabdYgaSjabgkHiTiabdsha0jabdkhaYjabdggaHjabd6gaUjabdohaZbaakiabgUcaRiabd6eaojabdcfaqnaaBaaaleaacqWG0baDaeqaaOGaey4kaSIaem4saS0aa0baaSqaaiabdsgaKbqaaiabdggaHjabdYgaSjabdYgaSjabgkHiTiabdsha0jabdkhaYjabdggaHjabd6gaUjabdohaZbaaaOGaayjkaiaawMcaamaaCaaaleqabaGaeGOmaidaaOGaeyOeI0IaeGinaqJaemOta4Kaemiuaa1aaSbaaSqaaiabdsha0bqabaGccqWGsbGudaqhaaWcbaGaemiDaqhabaGaemyyaeMaemiBaWMaemiBaWMaeyOeI0IaemiDaqNaemOCaiNaemyyaeMaemOBa4Maem4CamhaaaqabaaakiaawUfacaGLDbaaaaa@8490@
(§4) The equation was fit to the data by nonlinear least-squares analysis. To follow the quenching of the protein's intrinsic fluorescence the excitation and emission wavelengths were set to 280 nm and 340 nm, respectively, while the protein was titrated with all-trans retinol. For the quenching studies the inner filter effect was accounted for by graphical correction as previously described. Fluorescence measurements were made using an SLM 8000TM C photon counting spectrofluorometer corrected for wavelength dependence of source energy and detector response.

Xenopus IRBP Module 4 = target: T2, Xenopus IRBP Module 4 (Xenopus laevis, UniProt Q7SZI7); experiment: Fluorometric titration (enhancement, quenching); format: binding
T2 construct: cDNAs corresponding to the full-length IRBP, module 1, and module 2 were expressed in pThioHis; modules 3 and 4 were expressed in pTrxFus; made in house; host or cells: E. coli GI724 / GI698 (pTrxFus)
T2 sequence (Q7SZI7 923-1219): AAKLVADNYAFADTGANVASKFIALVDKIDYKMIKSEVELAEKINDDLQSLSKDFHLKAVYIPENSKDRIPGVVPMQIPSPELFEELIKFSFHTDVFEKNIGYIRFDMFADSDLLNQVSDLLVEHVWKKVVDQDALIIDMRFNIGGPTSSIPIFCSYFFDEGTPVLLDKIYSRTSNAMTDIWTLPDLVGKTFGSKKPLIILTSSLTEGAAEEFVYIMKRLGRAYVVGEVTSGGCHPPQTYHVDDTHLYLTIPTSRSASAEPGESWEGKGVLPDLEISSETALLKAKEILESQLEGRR
Text: as §1, §2, §3, §4

[1] = target: X(1,2)IRBP (Xen IRBP modules 1&2) (Xenopus laevis, UniProt Q7SZI7); experiment: Fluorometric titration, retinol fluorescence enhancement, double module; format: binding; conditions: ex 330 nm, em 480 nm, protein 0.67 μM
Chain of X(1,2)IRBP (Xen IRBP modules 1&2) (Q7SZI7 23-617): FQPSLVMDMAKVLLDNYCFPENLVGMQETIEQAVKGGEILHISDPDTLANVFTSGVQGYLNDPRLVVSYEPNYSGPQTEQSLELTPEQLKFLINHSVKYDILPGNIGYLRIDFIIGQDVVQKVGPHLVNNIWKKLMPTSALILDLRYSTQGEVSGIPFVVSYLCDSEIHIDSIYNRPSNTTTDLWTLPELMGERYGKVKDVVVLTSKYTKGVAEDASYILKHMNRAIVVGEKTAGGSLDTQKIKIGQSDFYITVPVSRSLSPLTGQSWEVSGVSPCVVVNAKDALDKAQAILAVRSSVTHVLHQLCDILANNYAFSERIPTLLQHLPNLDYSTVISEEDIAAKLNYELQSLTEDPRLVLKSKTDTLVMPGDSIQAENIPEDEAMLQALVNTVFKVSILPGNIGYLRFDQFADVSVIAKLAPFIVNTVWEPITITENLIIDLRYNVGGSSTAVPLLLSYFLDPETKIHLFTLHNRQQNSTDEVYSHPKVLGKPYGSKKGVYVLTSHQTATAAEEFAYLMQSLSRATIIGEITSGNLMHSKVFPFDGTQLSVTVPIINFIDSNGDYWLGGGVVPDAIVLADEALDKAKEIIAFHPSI
Text: (§5) Why do the number of sites from individual modules add up to more than that detected in the full-length IRBP? Here we asked whether the number of sites within individual modules could at least predict the number in recombinant proteins consisting of two modules. We had originally anticipated that the sum of sites from individual modules would give the number in such "module pairs". However, this turned out to be not always true. We expressed and purified module combinations 1&2 and 3&4, termed X(1,2)IRBP and X(3,4)IRBP respectively. Binding of all-trans retinol to these module pairs was characterized by fluorometric titrations monitoring retinol-fluorescence enhancement (Figure 10). For X(1,2)IRBP, N = 2.45 ± 0.11 (2.40 sites were predicted from the sum of individual modules 1 plus 2). In contrast, N for X(3,4)IRBP was 1.43 ± 0.21 sites (predicted, 3.83 sites). […] That is, some sites may not be solvent exposed in the intact IRBP as they are within individual modules. […] Therefore it is plausible that some binding sites that are solvent exposed in the individual module are buried in the intact […]. To address this question, ongoing studies in our laboratories are aimed at determining the X-ray crystal structure of IRBPs composed of multiple modules.
(§6) Figure 10 Retinol binding to Xenopus IRBPs consisting of two contiguous modules. Binding of double modules IRBPs with all-trans retinol as followed during titrations by monitoring the increase in retinol fluorescence (excitation, 330 nm; emission, 480 nm). The concentration of the IRBP double module was: modules 1&2, 0.67 μM; modules 3&4, 0.57 μM.
as §1
(§7) Assuming that there is a single type of noninteracting site on the protein, (Fenh) is expected to be linearly related to the concentration of bound retinol molecules. […]
(§8) The equation was fit to the data by nonlinear least-squares analysis. To follow the quenching of the protein's intrinsic fluorescence the excitation and emission wavelengths were set to 280 nm and 340 nm, respectively, while the protein was titrated with all-trans retinol. […]

[2] = target: X(3,4)IRBP (Xen IRBP modules 3&4) (Xenopus laevis, UniProt Q7SZI7); experiment: as above; format: binding; conditions: ex 330 nm, em 480 nm, protein 0.57 μM
Chain of X(3,4)IRBP (Xen IRBP modules 3&4) (Q7SZI7 618-1219): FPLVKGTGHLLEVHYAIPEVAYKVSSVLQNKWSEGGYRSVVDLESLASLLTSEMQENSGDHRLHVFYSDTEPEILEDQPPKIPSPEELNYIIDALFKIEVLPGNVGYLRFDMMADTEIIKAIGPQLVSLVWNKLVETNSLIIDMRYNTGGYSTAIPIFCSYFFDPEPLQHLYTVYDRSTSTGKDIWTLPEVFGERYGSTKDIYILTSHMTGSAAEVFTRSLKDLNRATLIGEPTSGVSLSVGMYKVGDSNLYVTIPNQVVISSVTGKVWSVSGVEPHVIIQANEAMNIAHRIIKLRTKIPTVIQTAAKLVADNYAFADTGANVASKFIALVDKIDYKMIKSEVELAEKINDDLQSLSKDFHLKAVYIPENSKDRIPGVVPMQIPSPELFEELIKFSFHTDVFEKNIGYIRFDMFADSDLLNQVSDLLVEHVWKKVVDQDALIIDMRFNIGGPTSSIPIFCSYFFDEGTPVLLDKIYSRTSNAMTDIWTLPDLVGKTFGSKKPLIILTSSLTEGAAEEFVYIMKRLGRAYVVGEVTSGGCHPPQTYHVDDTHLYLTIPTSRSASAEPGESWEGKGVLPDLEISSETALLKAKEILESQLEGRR
Text: as §5, §6, §1, §7, §8

Xenopus IRBP Module 2 = target: T3, Xenopus IRBP Module 2 (Xenopus laevis, UniProt Q7SZI7); design: method as in Loew et al. Exp Eye Res. 2001, 73:257–264; conditions: ref Loew et al. Exp Eye Res. 2001, 73:257–264, cited from earlier work
T3 construct: cDNAs corresponding to the full-length IRBP, module 1, and module 2 were expressed in pThioHis; modules 3 and 4 were expressed in pTrxFus; made in house; host or cells: E. coli Top10 (pThioHis)
T3 sequence (Q7SZI7 319-617 limits assumed): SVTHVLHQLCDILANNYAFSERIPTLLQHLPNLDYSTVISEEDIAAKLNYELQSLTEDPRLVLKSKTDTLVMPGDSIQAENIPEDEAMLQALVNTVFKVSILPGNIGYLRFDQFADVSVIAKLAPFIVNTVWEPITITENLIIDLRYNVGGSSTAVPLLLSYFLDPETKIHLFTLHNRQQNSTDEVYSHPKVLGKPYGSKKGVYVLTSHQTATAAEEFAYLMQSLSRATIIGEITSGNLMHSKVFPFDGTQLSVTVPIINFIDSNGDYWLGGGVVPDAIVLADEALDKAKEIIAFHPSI

[3] = all-trans retinol fluorescence enhancement, ex 330 nm, em 480 nm
[4] = all-trans retinol fluorescence enhancement, ex 330 nm, em 480 nm, read-out: Kd, Enhancement
[5] = quenching by all-trans retinol, ex 280 nm, em 340 nm, read-out: Kd, Quenching

- Binding sites (N), Enhancement (Xenopus IRBP Module 3; [3]): 1.83 ± 0.42
- Kd (Xenopus IRBP Module 3; [4]): 1180 ± 410 nM
- Kd (Xenopus IRBP Module 3; [5]): 310 ± 40 nM
- Binding sites (N), Enhancement (Xenopus IRBP Module 4; [3]): 2.06 ± 0.53
- Kd (Xenopus IRBP Module 4; all-trans retinol fluorescence enhancement, ex 330 nm, em 480 nm, absence of 11-cis retinaldehyde, read-out: Kd, Enhancement): 1790 ± 540 nM
- Kd (Xenopus IRBP Module 4; [5]): 640 ± 50 nM
- Binding sites (N) [1]: 2.45 ± 0.11
- Kd [1]: 49 ± 23 nM
- Binding sites (N) [2]: 1.43 ± 0.21
- Kd [2]: 190 ± 50 nM
Structure (SMILES): CC1=C(/C=C/C(C)=C/C=C/C(C)=C/CO)C(C)(C)CCC1 [all-trans retinol]
- Binding sites (N), Enhancement (Xenopus IRBP Module 2; [3]): 1.57 ± 0.04
- Kd (Xenopus IRBP Module 2; [4]): 84 ± 22 nM
- Binding sites (N), Quenching (Xenopus IRBP Module 2; quenching by all-trans retinol, ex 280 nm, em 340 nm): 1.31 ± 0.06
- Kd (Xenopus IRBP Module 2; [5]): 140 ± 40 nM
